Assay results from publication PMC7784776 (ACS chemical biology, 2020).
Converted amounts (≈) assume the structure as drawn. “And” between values parts separate entries of the source, which are not always exact repeats. Identical values can stand only once. Like-named read-outs stand apart in the source and are kept apart here.

Key:
PBP5 = PBP5 (Bacillus subtilis, UniProt P08750); assay: Fluorescent whole cell β-lactam titration with Boc-FL readout, SDS-PAGE; type: cell-based
PBP2b/H = PBP2b/H (Bacillus subtilis, UniProt Q07868); assay: as above; type: cell-based; conditions: for inhibition of PBP2b at MIC: at growth inhibitory concentration, substantial inhibition (>50%) not the case
B. subtilis PY79 = assay: Minimum inhibitory concentration; type: cell-based; conditions: Bacillus subtilis
PBP3 [1] = biological target: T1, PBP3 (Bacillus subtilis, UniProt P42971); assay: Fluorescent whole cell β-lactam titration with Boc-FL readout, SDS-PAGE; type: cell-based
PBP2a = PBP2a (Bacillus subtilis, UniProt P54488); assay: as above; type: cell-based
PBP1a/1b = PBP1a/1b (Bacillus subtilis, UniProt P39793); assay: as above; type: cell-based
PBP4 = PBP4 (Bacillus subtilis, UniProt P40750); assay: as above; type: cell-based
B. subtilis PBPs [2] = assay: PBP inhibition/selectivity profile across all detected PBPs; type: cell-based, Bacillus subtilis; conditions: at MIC
B. subtilis PBPs [3] = assay: β-Lactam titration of DK694; type: cell-based, Bacillus subtilis; conditions: DK694 (ΔpbpH) cells
B. subtilis PBPs [4] = assay: PBP activity profile after growth with sub-MIC meropenem; type: cell-based, Bacillus subtilis; conditions: 0.01 μg/mL, 2 h
PBP3 [5] = biological target: T1, PBP3; assay: Fluorescence imaging of PBP3 activity with MEM-BODIPY FL in live DK654; type: cell-based; conditions: pretreatment 10 μg/mL
[6] = IC50 PBP3, B. subtilis PY79 whole cells, average of two experiments
[7] = read-out: IC50 PBP2a, B. subtilis PY79 whole cells, average of two experiments

PBP2a, sequence (P54488 whole entry): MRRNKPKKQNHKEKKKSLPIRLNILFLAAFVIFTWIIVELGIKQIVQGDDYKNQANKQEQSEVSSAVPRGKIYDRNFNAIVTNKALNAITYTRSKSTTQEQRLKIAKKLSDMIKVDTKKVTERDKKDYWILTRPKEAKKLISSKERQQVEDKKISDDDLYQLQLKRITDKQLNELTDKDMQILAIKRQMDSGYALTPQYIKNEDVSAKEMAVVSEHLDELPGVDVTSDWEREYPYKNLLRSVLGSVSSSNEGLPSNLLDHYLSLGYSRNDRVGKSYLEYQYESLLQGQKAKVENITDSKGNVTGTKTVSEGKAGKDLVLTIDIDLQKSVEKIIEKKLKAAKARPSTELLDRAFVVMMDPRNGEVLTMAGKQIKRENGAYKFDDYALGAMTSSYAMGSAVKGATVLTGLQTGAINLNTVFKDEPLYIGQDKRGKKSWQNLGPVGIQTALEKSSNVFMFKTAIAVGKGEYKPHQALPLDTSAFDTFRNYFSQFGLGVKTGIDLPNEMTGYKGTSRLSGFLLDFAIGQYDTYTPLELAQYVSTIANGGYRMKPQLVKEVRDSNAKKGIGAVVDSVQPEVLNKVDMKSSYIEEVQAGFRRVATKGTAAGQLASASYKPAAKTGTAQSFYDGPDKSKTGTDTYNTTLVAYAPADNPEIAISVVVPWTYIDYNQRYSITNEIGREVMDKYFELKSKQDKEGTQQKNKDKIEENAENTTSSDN
PBP2b/H, sequence (Q07868 whole entry): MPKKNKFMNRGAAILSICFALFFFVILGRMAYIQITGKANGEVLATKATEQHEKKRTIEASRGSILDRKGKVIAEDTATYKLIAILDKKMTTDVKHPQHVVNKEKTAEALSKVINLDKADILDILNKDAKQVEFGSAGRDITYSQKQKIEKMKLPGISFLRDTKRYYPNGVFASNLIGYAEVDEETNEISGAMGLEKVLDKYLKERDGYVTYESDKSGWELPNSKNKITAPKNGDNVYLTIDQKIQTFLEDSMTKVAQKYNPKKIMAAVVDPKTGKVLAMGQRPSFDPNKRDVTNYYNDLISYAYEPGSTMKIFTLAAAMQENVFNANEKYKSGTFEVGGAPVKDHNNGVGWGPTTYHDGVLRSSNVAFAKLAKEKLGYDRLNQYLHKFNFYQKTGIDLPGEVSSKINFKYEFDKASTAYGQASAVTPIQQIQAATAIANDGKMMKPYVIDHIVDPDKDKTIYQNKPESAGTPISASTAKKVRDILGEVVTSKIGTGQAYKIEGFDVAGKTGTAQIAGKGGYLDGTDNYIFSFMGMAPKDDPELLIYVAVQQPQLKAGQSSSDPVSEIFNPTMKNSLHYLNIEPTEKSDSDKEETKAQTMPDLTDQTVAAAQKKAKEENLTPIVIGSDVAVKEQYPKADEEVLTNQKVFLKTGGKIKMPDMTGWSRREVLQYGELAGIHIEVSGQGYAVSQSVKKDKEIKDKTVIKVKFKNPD
PBP5, sequence (P08750 32-443): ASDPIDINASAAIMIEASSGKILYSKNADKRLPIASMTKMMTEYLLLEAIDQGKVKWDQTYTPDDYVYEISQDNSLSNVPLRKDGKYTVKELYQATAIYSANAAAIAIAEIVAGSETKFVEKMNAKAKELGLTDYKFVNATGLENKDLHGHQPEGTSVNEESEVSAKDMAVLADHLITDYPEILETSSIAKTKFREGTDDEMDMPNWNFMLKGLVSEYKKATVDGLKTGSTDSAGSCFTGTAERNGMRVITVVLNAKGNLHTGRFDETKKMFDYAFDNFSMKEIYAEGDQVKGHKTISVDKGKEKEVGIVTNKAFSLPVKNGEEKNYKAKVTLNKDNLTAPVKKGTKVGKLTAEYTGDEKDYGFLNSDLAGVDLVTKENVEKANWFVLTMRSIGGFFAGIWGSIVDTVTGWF
PBP1a/1b, sequence (P39793 77-662): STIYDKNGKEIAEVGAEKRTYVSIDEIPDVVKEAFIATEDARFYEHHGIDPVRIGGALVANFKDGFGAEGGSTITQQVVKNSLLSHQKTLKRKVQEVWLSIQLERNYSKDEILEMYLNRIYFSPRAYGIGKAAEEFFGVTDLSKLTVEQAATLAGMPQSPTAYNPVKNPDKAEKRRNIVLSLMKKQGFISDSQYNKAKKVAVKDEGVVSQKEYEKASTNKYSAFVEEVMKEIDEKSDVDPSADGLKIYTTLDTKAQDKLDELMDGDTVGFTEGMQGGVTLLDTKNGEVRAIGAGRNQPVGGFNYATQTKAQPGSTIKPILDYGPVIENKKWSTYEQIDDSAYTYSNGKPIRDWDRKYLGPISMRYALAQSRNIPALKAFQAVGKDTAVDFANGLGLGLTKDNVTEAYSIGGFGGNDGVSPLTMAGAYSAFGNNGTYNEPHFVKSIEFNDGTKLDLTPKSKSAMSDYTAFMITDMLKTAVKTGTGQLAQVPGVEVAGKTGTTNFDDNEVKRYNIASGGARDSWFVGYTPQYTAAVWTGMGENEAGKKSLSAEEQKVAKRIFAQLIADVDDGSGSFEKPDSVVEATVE
T1 sequence (P42971 whole entry): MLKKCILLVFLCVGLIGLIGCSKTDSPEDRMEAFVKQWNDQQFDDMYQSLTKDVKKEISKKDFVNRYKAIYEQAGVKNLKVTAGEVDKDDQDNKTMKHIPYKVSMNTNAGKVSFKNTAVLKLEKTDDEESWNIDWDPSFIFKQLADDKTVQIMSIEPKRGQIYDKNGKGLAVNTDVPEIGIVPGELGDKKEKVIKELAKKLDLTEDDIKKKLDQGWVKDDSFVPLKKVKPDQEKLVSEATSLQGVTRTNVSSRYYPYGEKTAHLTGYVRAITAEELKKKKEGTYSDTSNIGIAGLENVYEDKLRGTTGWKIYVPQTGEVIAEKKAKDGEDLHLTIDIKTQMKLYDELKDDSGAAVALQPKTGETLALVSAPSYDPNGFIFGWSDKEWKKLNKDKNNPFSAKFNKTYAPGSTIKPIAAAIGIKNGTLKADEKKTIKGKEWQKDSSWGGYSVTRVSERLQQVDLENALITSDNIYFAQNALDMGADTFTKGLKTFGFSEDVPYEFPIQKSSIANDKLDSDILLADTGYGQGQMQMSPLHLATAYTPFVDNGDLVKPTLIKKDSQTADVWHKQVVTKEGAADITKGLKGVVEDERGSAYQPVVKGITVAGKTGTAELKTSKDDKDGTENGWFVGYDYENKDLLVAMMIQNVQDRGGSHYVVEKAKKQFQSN
PBP4, sequence (P40750 22-624): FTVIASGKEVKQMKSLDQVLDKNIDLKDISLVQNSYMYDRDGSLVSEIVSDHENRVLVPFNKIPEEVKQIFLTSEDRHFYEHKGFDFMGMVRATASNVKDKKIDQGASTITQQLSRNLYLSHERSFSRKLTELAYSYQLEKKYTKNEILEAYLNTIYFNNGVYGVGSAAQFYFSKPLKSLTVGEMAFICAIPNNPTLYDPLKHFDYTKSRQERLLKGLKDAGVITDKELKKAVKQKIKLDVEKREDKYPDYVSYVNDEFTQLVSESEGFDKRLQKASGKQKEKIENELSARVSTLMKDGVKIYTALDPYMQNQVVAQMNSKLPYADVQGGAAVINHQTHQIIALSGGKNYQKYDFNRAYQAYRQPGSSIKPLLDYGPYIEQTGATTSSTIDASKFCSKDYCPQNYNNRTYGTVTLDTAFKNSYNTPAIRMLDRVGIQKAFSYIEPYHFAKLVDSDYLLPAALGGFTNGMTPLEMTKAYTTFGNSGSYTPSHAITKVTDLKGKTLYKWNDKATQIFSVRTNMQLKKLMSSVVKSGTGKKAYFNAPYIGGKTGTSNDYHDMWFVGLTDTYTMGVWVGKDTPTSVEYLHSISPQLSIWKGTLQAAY

SMILES	IC50 (PBP5)	IC50 (PBP2b/H)	inhibition of PBP2b at MIC (PBP2b/H)	MIC (B. subtilis PY79)	IC50 (PBP3 [1]; [6])	IC50 (PBP2a)	IC50 (PBP1a/1b)	IC50 (PBP4)	PBP inhibition at growth inhibitory concentrations (B. subtilis PBPs [2])	IC50 values for individual PBPs in DK694 (ΔpbpH) versus wild type (B. subtilis PBPs [3])	IC50 (PBP2a; [7])	IC50 (PBP3 [1]; read-out: IC50 PBP3, B. subtilis PY79 whole cells, average of two experiments)	concentration for selective and complete inhibition of PBP5 (PBP5; B. subtilis whole cells)	concentration for selective and complete inhibition of PBP5 (PBP5; corresponding to ~1 μg/mL)	PBP inhibition after growth with sub-MIC concentration (B. subtilis PBPs [4])	MEM-BODIPY FL fluorescent signal upon pretreatment of the cells (PBP3 [5])	IC50 (PBP3 [1]; 50% inhibition of PBP3, concentration in μM, corresponding to 0.26 μg/mL)	concentration for complete inhibition of PBP3 (PBP3 [1]; B. subtilis whole cells)	concentration for complete inhibition of PBP3 (PBP3 [1]; corresponding to 1 μg/mL)
CC1(C)S[C@@H]2[C@H](N)C(=O)N2[C@H]1C(=O)O [6-APA, 6-Aminopenicillanic acid]	19 µM	> 4620 µM	≤ 50%	8 to 256 µg/mL (≈ 37 to 1180 µM)	> 4620 µM	511 µM	> 4620 µM	> 4620 µM	failed to significantly block any PBPs	–	–	–	–	–	–	–	–	–	–
CC1(C)S[C@@H]2[C@H](NC(=O)[C@H](N)c3ccc(O)cc3)C(=O)N2[C@H]1C(=O)O [amoxicillin]	3.04 µM	0.241 µM	–	4 µg/mL (≈ 10.9 µM)	0.383 µM	0.203 µM	0.00274 µM	0.208 µM	–	–	–	–	–	–	–	–	–	–	–
CC1(C)S[C@@H]2[C@H](NC(=O)[C@H](N)c3ccccc3)C(=O)N2[C@H]1C(=O)O [ampicillin]	0.343 µM	0.0269 µM	–	8 µg/mL (≈ 22.9 µM)	0.12 µM	0.0103 µM	< 0.0286 µM	0.0106 µM	–	comparable and within twofold in most cases	–	–	–	–	–	–	–	–	–
C[C@H]1[C@H](NC(=O)/C(=N\OC(C)(C)C(=O)O)c2csc(N)n2)C(=O)N1S(=O)(=O)O [aztreonam]	–	–	≤ 50%	16 µg/mL (≈ 36.7 µM)	–	–	–	–	–	–	–	–	–	–	–	–	–	–	–
CO/N=C(\C(=O)N[C@@H]1C(=O)N2C(C(=O)O)=C(COC(C)=O)CS[C@H]12)c1csc(N)n1 [cefotaxime]	> 2200 µM	< 0.22 µM	–	0.0625 µg/mL (≈ 0.137 µM)	2.17 µM	–	0.00285 µM	< 0.22 µM	–	–	< 220 µM	–	–	–	–	–	–	–	–
CO[C@@]1(NC(=O)Cc2cccs2)C(=O)N2C(C(=O)O)=C(COC(N)=O)CS[C@@H]21 [cefoxitin]	0.444 µM	0.444 µM	–	1 µg/mL (≈ 2.34 µM)	2.43 µM	1.68 µM	0.0328 µM	0.0328 µM	–	–	–	–	–	–	–	–	–	–	–
NC(=O)c1cc[n+](CC2=C(C(=O)O)N3C(=O)[C@@H](NC(=O)[C@@H](c4ccccc4)S(=O)(=O)[O-])[C@H]3SC2)cc1 [cefsulodin]	> 1880 µM	1.24 µM	–	8 µg/mL (≈ 15 µM)	260 µM	71.4 µM	0.0184 µM	0.225 µM	–	–	–	–	–	–	–	–	–	–	–
CO/N=C(\C(=O)N[C@@H]1C(=O)N2C(C(=O)O)=C(CSc3nc(=O)c(=O)[nH]n3C)CS[C@H]12)c1csc(N)n1 [ceftriaxone]	> 1800 µM	0.119 µM	–	0.25 µg/mL (≈ 0.451 µM)	4.69 µM	29.4 µM	0.0135 µM	0.0361 µM	–	–	–	–	–	–	–	–	–	–	–
CO/N=C(\C(=O)N[C@@H]1C(=O)N2C(C(=O)O)=C(COC(N)=O)CS[C@H]12)c1ccco1 [cefuroxime]	> 2360 µM	0.189 µM	–	0.125 µg/mL (≈ 0.295 µM)	52.3 µM	65.7 µM	0.00424 µM	0.0353 µM	–	–	–	–	–	–	–	–	–	–	–
CC1=C(C(=O)O)N2C(=O)[C@@H](NC(=O)[C@H](N)c3ccccc3)[C@H]2SC1 [cephalexin]	> 2880 µM	< 0.288 µM	–	0.5 µg/mL (≈ 1.44 µM)	69.4 µM	< 0.288 µM	> 2880 µM	732 µM	–	–	–	–	–	–	–	–	–	–	–
CC(=O)OCC1=C(C(=O)O)N2C(=O)[C@@H](NC(=O)Cc3cccs3)[C@H]2SC1 [cephalothin]	273 µM	0.0192 µM	–	0.0312 µg/mL (≈ 0.0788 µM)	29.8 µM	0.0164 µM	0.00656 µM	0.0151 µM	–	–	–	–	–	–	–	–	–	–	–
Cc1onc(-c2ccccc2Cl)c1C(=O)N[C@@H]1C(=O)N2[C@@H]1SC(C)(C)[C@@H]2C(=O)O [cloxacillin]	> 2290 µM	0.298 µM	≤ 50%	0.125 µg/mL (≈ 0.287 µM)	–	0.206 µM	> 2290 µM	0.0505 µM	–	–	–	< 2290 µM	–	–	–	–	–	–	–
C[C@@H](O)[C@H]1C(=O)N2C(C(=O)O)=C(S[C@@H]3CN[C@H](CNS(N)(=O)=O)C3)[C@H](C)[C@H]12 [doripenem]	0.547 µM	–	–	0.0625 µg/mL (≈ 0.149 µM)	0.285 µM	–	> 2380 µM	> 2380 µM	–	–	< 2380 µM	–	–	–	–	–	–	–	–
C[C@@H](O)[C@H]1C(=O)N2C(C(=O)O)=C([C@H]3CCCO3)S[C@H]12 [faropenem]	0.701 µM	0.0179 µM	–	0.125 µg/mL (≈ 0.438 µM)	3.29 µM	0.0386 µM	0.00207 µM	0.0315 µM	–	–	–	–	–	–	–	–	–	–	–
CC1(C)S[C@@H]2[C@H](/N=C/N3CCCCCC3)C(=O)N2[C@H]1C(=O)O [mecillinam]	> 3070 µM	3.29 µM	–	16 µg/mL (≈ 49.2 µM)	275 µM	20.6 µM	> 3070 µM	> 3070 µM	–	–	–	–	–	–	–	–	–	–	–
C[C@@H](O)[C@H]1C(=O)N2C(C(=O)O)=C(S[C@@H]3CN[C@H](C(=O)N(C)C)C3)[C@H](C)[C@H]12 [meropenem]	0.574 µM	–	≤ 50%	0.0625 µg/mL (≈ 0.163 µM)	0.678 µM	–	> 2610 µM	≥ 2610 µM	–	–	< 2610 µM	–	~ 1 μg/mL	2.6 µM	No significant inhibition	significantly reduced	0.67 µM	~ 1 μg/mL and 1 μg/mL	2.6 µM
COc1cccc(OC)c1C(=O)N[C@@H]1C(=O)N2[C@@H]1SC(C)(C)[C@@H]2C(=O)O [methicillin]	391 µM	< 0.263 µM	–	0.25 µg/mL (≈ 0.657 µM)	23.7 µM	< 0.0263 µM	> 2630 µM	0.289 µM	–	comparable and within twofold in most cases	–	–	–	–	–	–	–	–	–
Cc1onc(-c2ccccc2)c1C(=O)N[C@@H]1C(=O)N2[C@@H]1SC(C)(C)[C@@H]2C(=O)O [oxacillin]	> 2490 µM	0.152 µM	≤ 50%	0.25 µg/mL (≈ 0.623 µM)	166 µM	0.139 µM	> 2490 µM	< 0.249 µM	–	–	–	–	–	–	–	–	–	–	–
CC1(C)S[C@@H]2[C@H](NC(=O)Cc3ccccc3)C(=O)N2[C@H]1C(=O)O [penicillin G]	–	0.0568 µM	–	16 µg/mL (≈ 47.8 µM)	4.19 µM	0.0129 µM	> 2990 µM	0.0269 µM	–	–	–	–	–	–	–	–	–	–	–
CC1(C)S[C@@H]2[C@H](NC(=O)COc3ccccc3)C(=O)N2[C@H]1C(=O)O [penicillin V]	1.77 µM	< 0.0285 µM	–	32 µg/mL (≈ 91.3 µM)	5.82 µM	0.0012 µM	< 0.0285 µM	< 0.0285 µM	–	–	–	–	–	–	–	–	–	–	–
CCN1CCN(C(=O)N[C@@H](C(=O)N[C@@H]2C(=O)N3[C@@H]2SC(C)(C)[C@@H]3C(=O)O)c2ccccc2)C(=O)C1=O [piperacillin]	21.8 µM	< 1.93 µM	–	64 µg/mL (≈ 124 µM)	3.67 µM	0.309 µM	0.00232 µM	0.058 µM	–	–	–	–	–	–	–	–	–	–	–
